Experimental data as given in the C3SDB collision cross section collection.

settings: [M+H]+; instrument: TW

| Structure (SMILES) | collision cross section (N2) [Å²] |
| --- | --- |
| CC(C)(C)C(O)(CCc1ccc(Cl)cc1)Cn1cncn1 (configuration not stated) [Tebuconazole] | 167.37 |
| O=C(NC(=O)c1c(F)cccc1F)Nc1ccc(Cl)cc1 [Diflubenzuron] | 160.98 |
| C=C1C[C@@]23CC[C@H]4[C@@](C)(CCC[C@@]4(C)C(=O)O)[C@@H]2CC[C@]1(O[C@@H]1O[C@H](CO)[C@@H](O)[C@H](O[C@@H]2O[C@H](CO)[C@@H](O)[C@H](O)[C@H]2O)[C@H]1O[C@@H]1O[C@H](CO)[C@@H](O)[C@H](O)[C@H]1O)C3 [Rebaudioside B] | 261.19 |
| CCCN1C[C@H](C)[C@@H](O)[C@](C)(O)[C@@H](CC)OC(=O)[C@H](C)[C@@H](O[C@H]2C[C@@](C)(OC)[C@@H](O)[C@H](C)O2)[C@H](C)[C@@H](O[C@@H]2O[C@H](C)C[C@H](N(C)C)[C@H]2O)[C@](C)(O)C[C@H]1C [Gamithromycin] | 280.6 |
| CC(C)Oc1cccc(NC(=O)c2ccccc2C(F)(F)F)c1 [Flutolanil] | 175.45 |
| COP(=O)(OC)OC=C(Cl)Cl [Dichlorvos] | 133.07 |
| COP(=O)(OC)OC1=C(Cl)C2C=CCC12 (configuration not stated) [Heptenophos] | 144.04 |
| CCCCC(O)(Cn1cncn1)c1ccc(Cl)cc1Cl (configuration not stated) [Hexaconazole] | 171.26 |
| CC1=NNC(=O)N(/N=C/c2cccnc2)C1 [Pymetrozine] | 150.71 |
| C=C1C[C@@]23CC[C@H]4[C@@](C)(CCC[C@@]4(C)C(=O)O[C@@H]4O[C@H](CO)[C@@H](O)[C@H](O)[C@H]4O[C@@H]4O[C@H](CO)[C@@H](O)[C@H](O)[C@H]4O)[C@@H]2CC[C@]1(O[C@@H]1O[C@H](CO)[C@@H](O)[C@H](O)[C@H]1O[C@@H]1O[C@H](CO)[C@@H](O)[C@H](O)[C@H]1O)C3 [Rebaudioside E] | 289.2 |
| C=C1C[C@@]23CC[C@H]4[C@@](C)(CCC[C@@]4(C)C(=O)O[C@@H]4O[C@H](CO)[C@@H](O)[C@H](O)[C@H]4O)[C@@H]2CC[C@]1(O[C@@H]1O[C@H](CO)[C@@H](O)[C@H](O)[C@H]1O)C3 [Rubusoside] | 241.31 |
| CCOP(=O)(NC(C)C)Oc1ccc(S(C)(=O)=O)c(C)c1 (configuration not stated) [Fenamiphos sulfone] | 179.48 |
| CO/C=C(/C(=O)OC)c1ccccc1COc1cccc(C(F)(F)F)n1 [Picoxystrobin] | 177.5 |
| CS(=O)(=O)c1ccc(C(=O)C2C(=O)CCCC2=O)c([N+](=O)[O-])c1 [Mesotrione] | 175.66 |
| N#C/N=C1\SCCN1Cc1ccc(Cl)nc1 [Thiacloprid] | 154.84 |
| CCN(Cc1ccc(Cl)nc1)/C(=C/[N+](=O)[O-])NC [Nitenpyram] | 160.32 |
| C=C1C[C@@]23CC[C@H]4[C@@](C)(CCC[C@@]4(C)C(=O)O[C@@H]4O[C@H](CO)[C@@H](O)[C@H](O)[C@H]4O)[C@@H]2CC[C@]1(O[C@@H]1O[C@H](CO)[C@@H](O)[C@H](O)[C@H]1O[C@@H]1O[C@H](CO)[C@@H](O)[C@H](O)[C@H]1O)C3 [Stevioside] | 269.64 |
| CC(C)c1ncc([N+](=O)[O-])n1C [Ipronidazole] | 126.1 |
| CCCNC[C@]1(O)[C@H](C)O[C@@H](O[C@H]2[C@H](C)[C@@H](O[C@@H]3O[C@H](C)C[C@H](N(C)C)[C@H]3O)[C@](C)(O)C[C@@H](C)CN[C@H](C)[C@@H](O)[C@](C)(O)[C@@H](CC)OC(=O)[C@@H]2C)C[C@@]1(C)OC [Tulathromycin] | 286.4 |
| CCNc1nc(Cl)nc(NC(C)(C)C)n1 [Terbuthylazine] | 153.48 |
| C[C@]12CC[C@H]3[C@@H](CCC4=C(Cl)C(=O)CC[C@@]43C)[C@@H]1CC[C@@H]2O [Clostebol] | 173.6 |

The remaining lines, values ahead:

| collision cross section (N2) [Å²] | Structure (SMILES) |
| --- | --- |
| 159.1 | Cc1c(Nc2ncccc2C(=O)O)cccc1C(F)(F)F [Flunixin] |
| 166.4 | CC(C(=O)O)c1ccc(N2Cc3ccccc3C2=O)cc1 (configuration not stated) [Indoprofen] |
| 180.1 | C[C@]12C=CC(=O)C=C1CC[C@@H]1[C@@H]2C(=O)C[C@@]2(C)[C@H]1CC[C@]2(O)C(=O)CO [Prednisone] |
| 147.1 | COc1ccc2cc([C@H](C)C(=O)O)ccc2c1 [Naproxen] |
| 178.44 | CCOC(=O)NCCOc1ccc(Oc2ccccc2)cc1 [Fenoxycarb] |
| 138.2 | c1ccc([C@H]2CN3CCSC3=N2)cc1 [Levamisole] |
| 173.38 | CC(NC(=O)C(NC(=O)O)C(C)C)c1nc2ccc(F)cc2s1 (configuration not stated) [Benthiavalicarb] |
| 194.8 | O=C(O)\C3=C\N(c2cc(N1CCN(CC)CC1)c(F)cc2C3=O)C4CC4 [Enrofloxacine] |
| 166 | COc1cc(NS(=O)(=O)c2ccc(N)cc2)nc(OC)n1 [Sulfadimethoxine] |
| 156.8 | O=C(O)c1cccnc1Nc1cccc(C(F)(F)F)c1 [Niflumic acid] |
| 157.2 | O=C(O)Cc1ccccc1Nc1c(Cl)cccc1Cl [Diclofenac] |
